Results on 2 compounds are retold here after article PMC10820816, “Drug Synergism of Anticancer Action in Combination with Favipiravir and Paclitaxel on Neuroblastoma Cells” (Medicina, 2023).

Converted amounts (≈) assume the structure as drawn.

One data set deals with CYP2C8. Also noted: method as in PMID 34339547. The note with it: cited from earlier work.
Data set [1] has as its system SHSY-5Y neuroblastoma cells. The data set is described as follows: Flow cytometry analysis (FITC Annexin V / PI). Type of data set: cell-based, human. The note with it: FPV alone 39.06, 19.53, 9.76 µg/mL. Here is the method:
(§1) The human dermal fibroblast cell (HDFa, ATCC® PCS-201-012™) culture was grown in the DMEM medium supplemented with 1% penicillin/streptomycin, 10% FBS and 5% CO2 at a 37 °C temperature until the cultures reached 80% confluency. The human neuroblastoma cell (SH-SY5Y, ATCC® CRL-2266™) line was cultured in DMEM/F12 culture media containing 1% penicillin/streptomycin and 10% fetal bovine serum at 37 °C and 5% CO2. Neuroblastoma cell cultures were incubated to grow up to 80% cell density.
(§2) Flow cytometry analysis was performed by using the FITC Annexin V/Dead Cell Apoptosis Kit with FITC Annexin V and PI according to the producer’s recommendations. Further, 5 × 10^4 cells were collected by trypsinization and centrifugation. The cells were resuspended in 500 μL of 1× binding buffer and 5 μL of propidium iodide, and the Annexin V-FITC (50 μg/mL) dyes were added to the cultures and incubated in the dark for 5 min. Finally, the cultures were analyzed via the use of flow cytometry (The CyFlow® Cube 6, Norderstedt, Germany).

Data set [2] deals with HDFa healthy cell cultures. The data set is described as follows: Hoechst 33258 fluorescent staining and nuclear abnormality analysis. To be noted: for Abnormality Numbers/1000 Cells / L (lobed nuclei) / MN (micronuclei) / Ntc (notched nuclei): 24 h; for nuclear anomaly change compared to negative control: Hoechst 33258 staining. Also noted: MN (micronuclei) / Ntc (notched nuclei): unit not given here. Format: cell-based, human. Here is the method:
as §1
The Hoechst 33258 nuclear staining method was used to monitor abnormalities in the nuclear structures of a healthy HDFa cell culture. Tested drugs were applied to the HDFa cell cultures at various concentrations, and the cell cultures were incubated at 37 °C for 24 h. Then, HDFa cells were fixed by using 4% paraformaldehyde at 4 °C for 30 min. After the incubation period, the cell cultures were washed with PBS two times. A total of 1 µM Hoechst 33258 fluorescent dye was added to the samples and incubated at room temperature for 5 min. Nuclear morphologies were monitored and photographed under a fluorescent microscope (Leica® DM IL LED, Wetzlar, Germany).

Data set [3] relates to human fibroblast (HDFa) cells. The data set is described as follows: MTT cell viability assay on human fibroblast (HDFa) cells. The note with it: 24 h, p < 0.05. Format: cell-based. How it is done: as §1
(§3) Cell viability analyses were performed on HDFa and SH-SY5Y by using the 3-(4,5-dimethylthiazol-2-yl)-2,5-diphenyltetrazolium bromide (MTT) technique. Briefly, the compounds were applied to cell cultures at defined concentration intervals (1.65 µg/mL to 100 µg/mL) for 24 h. At the end of the incubation period, 10 µL of the MTT solution ([…]) was added to each culture well, and the samples were incubated at 37 °C for 3 h. Then, the culture mediums were discarded, and 100 µL of DMSO was added to the samples to dissolve formazan crystal to obtain a purple/blue color. A microplate reader was used to measure the color intensities at a 570 nm wavelength.

Data set [4] in a line: MTT cell viability assay on SH-SY5Y neuroblastoma cells. Type of data set: cell-based, human. The note with it: human, SH-SY5Y neuroblastoma cells, SHSY-5Y, PTX 10 µg/mL alone. How it is done: as §1, §3
A general note: Formazan colour is commonly taken as a measure of viable cells.

Data set [5] concerns SHSY-5Y neuroblastoma cells. Described as above. Type of data set: cell-based, human. To be noted: 24 h, p < 0.05. How it is done:
as §1, §3

Data set [6] in a line: Flow cytometry analysis (FITC Annexin V / PI). The note with it: human, SH-SY5Y neuroblastoma cells, SHSY-5Y, PTX 10 µg/mL. Type of data set: cell-based, human. How it is done: as §1, §2

Take `NC(=O)c1nc(F)c[nH]c1=O` [FPV, Favipiravir]: the “IC50, concentration-dependent inhibitory effect on CYP2C8” value in the data set on CYP2C8 was 74.9 µg/mL (≈ 477 µM). In addition, in data set [1], the “change in cell viability” value is on record as “did not cause a significant change in cell viability”. Besides, in data set [2] (FPV 9.7 µg/mL), the “Abnormality Numbers/1000 Cells” value is on record as 0.020 ± 0.008 a, the “L (lobed nuclei)” value came out at 7, the “MN (micronuclei)” value came out at 8 and the “Ntc (notched nuclei)” value came to 5. Moreover, in data set [2] (FPV 19.5 µg/mL), the “Abnormality Numbers/1000 Cells” value is recorded as 0.019 ± 0.016 a, the “L (lobed nuclei)” value worked out at 6, the “MN (micronuclei)” value is listed as 6 and the “Ntc (notched nuclei)” value is given as 7. For the same compound, in data set [2] (FPV 39 µg/mL), the “Abnormality Numbers/1000 Cells” value worked out at 0.019 ± 0.007 a, the “L (lobed nuclei)” value is 7, the “MN (micronuclei)” value is given as 7 and the “Ntc (notched nuclei)” value is 5. Besides, the “nuclear anomaly change compared to negative control” value in data set [2] was “no significant numerical anomaly change”.

Usually viability stands for a per cent measure of how many cells are alive, often set against a control. Regarding `CC(=O)O[C@H]1C(=O)[C@@]2(C)[C@H]([C@H](OC(=O)c3ccccc3)[C@]3(O)C[C@H](OC(=O)[C@H](O)[C@@H](NC(=O)c4ccccc4)c4ccccc4)C(C)=C1C3(C)C)[C@]1(OC(C)=O)CO[C@@H]1C[C@@H]2O` [PTX, Paclitaxel], the “concentrations causing a significant cytotoxic / viability-reducing effect” value in data set [3] is 10000 ng/mL. For the same compound, in data set [4], the viability at 24 h, 10 µg/mL amounted to 37%. Moreover, in data set [5], the “concentrations causing a significant decrease in cell viability (cytotoxic effect)” value is at least 312.5 ng/mL. This compound also displayed a viability at 10 µg/mL in data set [6] of about 37%. The “nuclear anomaly change compared to negative control” value in data set [2] is listed as “no significant numerical anomaly change”. In addition, in data set [2] (PTX 10 µg/mL), the “Abnormality Numbers/1000 Cells” value was 0.019 ± 0.013 a, the “L (lobed nuclei)” value came to 5, the “MN (micronuclei)” value worked out at 8 and the “Ntc (notched nuclei)” value is given as 6.
